From patent publication US12187742B2 (XRAD Therapeutics, Inc., priority 2018, dated 2025)
Where a name gives a salt, the structure may show the parent alone.

molecular target: ATM (Homo sapiens (Human), UniProt Q13315); assay: ATM in Cell Western Assay (pKAP1 in etoposide-treated MCF-7 cells); assay type: cell-based; conditions: MCF-7 cells, etoposide 100 μM, 1 hr, pKAP1 readout
Method in brief: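 After paraformaldehyde fixation and Triton X-100 permeabilization, immunostained plates were read by infrared scanning (ODYSSEY CLx). Compound was given as 10 doses, 3-fold dilutions from a 1 μM final top concentration.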

Sequence of ATM (Q13315 whole entry): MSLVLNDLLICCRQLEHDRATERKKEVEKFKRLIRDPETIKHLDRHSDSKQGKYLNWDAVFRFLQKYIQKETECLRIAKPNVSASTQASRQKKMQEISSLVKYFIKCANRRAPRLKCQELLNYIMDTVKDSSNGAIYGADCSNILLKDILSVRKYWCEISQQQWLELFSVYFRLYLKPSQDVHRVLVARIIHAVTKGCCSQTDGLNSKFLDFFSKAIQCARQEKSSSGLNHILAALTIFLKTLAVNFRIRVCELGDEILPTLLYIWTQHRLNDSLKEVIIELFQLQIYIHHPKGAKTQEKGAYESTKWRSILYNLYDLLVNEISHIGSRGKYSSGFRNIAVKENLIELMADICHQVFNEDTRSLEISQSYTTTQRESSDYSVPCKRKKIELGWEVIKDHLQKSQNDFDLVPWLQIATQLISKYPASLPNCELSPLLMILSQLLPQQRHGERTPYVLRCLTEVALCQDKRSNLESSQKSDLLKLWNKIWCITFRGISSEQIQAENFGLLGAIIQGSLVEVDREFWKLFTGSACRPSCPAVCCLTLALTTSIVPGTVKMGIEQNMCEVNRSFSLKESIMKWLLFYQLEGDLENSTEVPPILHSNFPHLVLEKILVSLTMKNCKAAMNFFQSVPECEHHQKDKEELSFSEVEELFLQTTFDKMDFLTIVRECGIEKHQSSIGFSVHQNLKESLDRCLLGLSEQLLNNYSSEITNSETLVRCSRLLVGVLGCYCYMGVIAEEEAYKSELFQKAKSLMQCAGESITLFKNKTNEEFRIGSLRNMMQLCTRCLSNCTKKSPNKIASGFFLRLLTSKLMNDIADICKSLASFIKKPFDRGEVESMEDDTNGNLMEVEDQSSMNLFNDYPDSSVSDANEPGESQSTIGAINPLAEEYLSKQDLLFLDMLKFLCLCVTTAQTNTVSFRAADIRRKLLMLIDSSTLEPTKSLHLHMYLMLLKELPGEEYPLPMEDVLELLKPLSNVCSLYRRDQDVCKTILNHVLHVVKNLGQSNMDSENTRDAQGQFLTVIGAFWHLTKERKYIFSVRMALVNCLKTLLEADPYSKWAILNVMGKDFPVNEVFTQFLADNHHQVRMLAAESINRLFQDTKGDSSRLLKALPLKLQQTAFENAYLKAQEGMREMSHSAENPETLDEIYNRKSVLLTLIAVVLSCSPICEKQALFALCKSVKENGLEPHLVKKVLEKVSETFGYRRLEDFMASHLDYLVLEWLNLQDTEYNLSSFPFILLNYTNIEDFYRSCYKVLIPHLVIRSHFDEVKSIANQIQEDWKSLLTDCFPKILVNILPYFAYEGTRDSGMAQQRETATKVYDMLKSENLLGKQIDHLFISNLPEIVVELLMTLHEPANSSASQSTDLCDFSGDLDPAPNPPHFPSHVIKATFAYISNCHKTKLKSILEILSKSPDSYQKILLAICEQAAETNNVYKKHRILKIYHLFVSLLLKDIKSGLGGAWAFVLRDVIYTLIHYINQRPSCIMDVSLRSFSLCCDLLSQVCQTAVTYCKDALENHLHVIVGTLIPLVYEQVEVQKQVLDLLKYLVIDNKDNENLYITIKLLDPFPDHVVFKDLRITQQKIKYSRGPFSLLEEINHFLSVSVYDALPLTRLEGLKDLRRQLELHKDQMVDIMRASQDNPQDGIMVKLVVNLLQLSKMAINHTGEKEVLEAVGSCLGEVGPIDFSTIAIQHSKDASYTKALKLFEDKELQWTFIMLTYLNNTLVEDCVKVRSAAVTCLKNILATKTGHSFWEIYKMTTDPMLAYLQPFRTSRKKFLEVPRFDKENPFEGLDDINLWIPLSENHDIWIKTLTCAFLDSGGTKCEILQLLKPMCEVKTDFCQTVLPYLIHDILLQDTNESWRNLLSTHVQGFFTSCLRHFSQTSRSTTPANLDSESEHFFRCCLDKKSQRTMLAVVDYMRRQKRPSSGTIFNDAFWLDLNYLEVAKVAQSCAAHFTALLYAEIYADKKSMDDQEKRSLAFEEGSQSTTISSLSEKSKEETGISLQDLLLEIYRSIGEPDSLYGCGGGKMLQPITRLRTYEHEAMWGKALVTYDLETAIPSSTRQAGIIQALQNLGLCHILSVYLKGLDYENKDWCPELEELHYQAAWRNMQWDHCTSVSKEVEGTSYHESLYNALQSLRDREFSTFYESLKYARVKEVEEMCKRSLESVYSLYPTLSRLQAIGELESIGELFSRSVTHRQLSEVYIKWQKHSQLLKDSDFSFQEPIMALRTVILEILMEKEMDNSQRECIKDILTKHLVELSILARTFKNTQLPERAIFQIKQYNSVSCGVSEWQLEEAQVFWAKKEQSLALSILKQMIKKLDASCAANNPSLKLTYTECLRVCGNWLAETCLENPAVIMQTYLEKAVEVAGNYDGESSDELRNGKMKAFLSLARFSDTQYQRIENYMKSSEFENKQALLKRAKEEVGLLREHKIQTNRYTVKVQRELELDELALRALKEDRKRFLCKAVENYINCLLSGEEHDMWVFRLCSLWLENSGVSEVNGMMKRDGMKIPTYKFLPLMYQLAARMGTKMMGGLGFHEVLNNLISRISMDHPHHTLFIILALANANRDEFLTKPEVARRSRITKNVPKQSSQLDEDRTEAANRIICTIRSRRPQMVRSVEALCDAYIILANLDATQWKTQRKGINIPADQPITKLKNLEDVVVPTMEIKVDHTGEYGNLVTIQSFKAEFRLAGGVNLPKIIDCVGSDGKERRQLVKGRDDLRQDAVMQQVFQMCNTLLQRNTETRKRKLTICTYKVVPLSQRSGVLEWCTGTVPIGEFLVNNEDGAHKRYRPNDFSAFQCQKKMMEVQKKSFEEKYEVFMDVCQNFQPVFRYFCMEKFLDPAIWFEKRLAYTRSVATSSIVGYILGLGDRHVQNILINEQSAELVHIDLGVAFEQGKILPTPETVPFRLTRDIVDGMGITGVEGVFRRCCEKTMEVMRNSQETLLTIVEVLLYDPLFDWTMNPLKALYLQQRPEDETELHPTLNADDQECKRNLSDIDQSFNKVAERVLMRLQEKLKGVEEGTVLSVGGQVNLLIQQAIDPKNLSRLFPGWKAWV

| IC50 [nM] | SMILES |
| --- | --- |
| 1 to 100 | CN1C(=O)C2(CCC2)c2c1cnc1ccc(-c3cnc(OCCCN4CCCCC4)c(NS(=O)(=O)CF)c3)cc21 [Example 301, 1-Fluoro-N-(5-(3′-methyl-2′-oxo-2′,3′-dihydrospiro[cyclobutane-1,1′-pyrrolo[2,3-c]quinolin]-8-yl)-2-(3-(piperidin-1-yl)propoxy)pyridin-3-yl) methanesulfonamide] |
| > 100 | COc1ncc(-c2ccc3ncc4c(c3c2)C2(CCC2)C(=O)N4C)cc1S(=N)(=O)c1ccccc1 (racemic) [Example 151, rac-8′-(6-Methoxy-5-(phenylsulfonimidoyl)pyridin-3-yl)-3′-methylspiro[cyclobutane-1,1′-pyrrolo[2,3-c]quinolin]-2′(3′H)-one] |
| 1 to 100 | CN(C)CCCNc1ccc(-c2ccc3ncc4c(c3c2)C2(CC2)C(=O)N4C)cn1 [Example 94, 8′-(6-((3-(Dimethylamino)propyl)amino)pyridin-3-yl)-3′-methylspiro [cyclopropane-1,1′-pyrrolo[2,3-c]quinolin]-2′(3′-H)-one] |
| 1 to 100 | CCN1C(=O)C2(CCC2)c2c1cnc1ccc(-c3cnc(N4CC(N(C)C)C4)c(NS(C)(=O)=O)c3)cc21 [Example 336, N-(2-(3-(Dimethylamino)azetidin-1-yl)-5-(3′-ethyl-2′-oxo-2′,3′-dihydrospiro [cyclobutane-1,1′-pyrrolo[2,3-c]quinolin]-8′-yl)pyridin-3-yl) methanesulfonamide] |
| > 100 | CN1C(=O)C2(CCC2)c2c1cnc1ccc(-c3cnc(OCCCN4CCCC(F)(F)C4)c(NS(C)(=O)=O)c3)cc21 [Example 298, N-(2-(3-(3,3-Difluoropiperidin-1-yl)propoxy)-5-(3′-methyl-2′-oxo-2′,3′-dihydrospiro[cyclobutane-1,1′-pyrrolo[2,3-c]quinolin]-8′-yl)pyridin-3-yl)methanesulfonamide] |
| 1 to 100 | CN1C(=O)C2(CCC2)c2c1cnc1ccc(-c3cnc(N4CC(N5CCCCC5)C4)c(NS(C)(=O)=O)c3)cc21 [Example 321, N-(5-(3′-Methyl-2′-oxo-2′,3′-dihydrospiro[cyclobulane-1,1′-pyrrolo[2,3-c]quinolin]-8′-yl)-2-(3-(piperidin-1-yl)azetidin-1-yl)pyridin-3-yl)methanesulfonamide hydrochloride] |
| 1 to 100 | CN(C)CCCOc1ncc(-c2ccc3ncc4c(c3c2)C2(CCC2)C(=O)N4C)nc1NS(C)(=O)=O [Example 263, N-(3-(3-(Dimethylamino)propoxy)-6-(3′-methyl-2′-oxo-2′,3′-dihydrospiro [cyclobutane-1,1′-pyrrolo[2,3-c]quinolin]-8′-yl)pyrazin-2-yl) methanesulfonamide] |
| > 100 | CN1C(=O)C2(CC2)c2c1cnc1ccc(-c3ccc4nc(Cl)ccc4c3)cc21 [Example 41, 8′-(2-Chloroquinolin-6-yl)-3′-methylspiro [cyclopropane-1,1′-pyrrolo [2,3-c]quinolin]-2′(3′-H)-one] |
| 1 to 100 | COc1ncc(-c2ccc3ncc4c(c3c2)C2(CC2)C(=O)N4C)cc1NS(=O)(=O)c1cccc(C(C)O)c1 (stereo not shown) [Example 18, 3-(1-Hydroxyethyl)-N-(2-methoxy-5-(3′-methyl-2′-oxo-2′,3′-dihydrospiro[cyclopropane-1,1′-pyrrolo[2,3-c]quinolin]-8′-yl)pyridin-3-yl)benzenesulfonamide] |
| 1 to 100 | CCc1ncc(S(=O)(=O)Nc2cc(-c3ccc4ncc5c(c4c3)C3(CCC3)C(=O)N5C)cnc2OCCNC)s1 [Example 275, 2-Ethyl-N-(5-(3′-methyl-2′-oxo-2′,3′-dihydrospiro[cyclobutane-1,1′-pyrrolo[2,3-c]quinolin]-8′-yl)-2-(2-(methylamino)ethoxy)pyridin-3-yl)thiazole-5-sulfonamide] |
| > 100 | Cc1oncc1S(=O)(=O)Nc1cc(-c2ccc3ncc4c(c3c2)C2(CC2)C(=O)N4C)cnc1OCCCN(C)C [Example 99, N-(2-(3-(Dimethylamino)propoxy)-5-(3′-methyl-2′-oxo-2′,3′-dihydrospiro [cyclopropane-1,1′-pyrrolo[2,3-c]quinolin]-8′-yl)pyridin-3-yl)-5-methylisoxazole-4-sulfonamide] |
| > 100 | CN1C(=O)C2(CCC2)c2c1cnc1ccc(-c3cnc(OCCCO)c(NS(C)(=O)=O)c3)cc21 [Example 254, N-(2-(3-Hydroxypropoxy)-5-(3′-methyl-2′-oxo-2′,3′-dihydrospiro[cyclobutane-1,1′-pyrrolo[2,3-c]quinolin]-8′-yl)pyridin-3-yl)methanesulfonamide] |
| > 100 | CN1C(=O)C2(CCC2)c2c1cnc1ccc(-c3cnc(OCC(F)(F)CN4CCCCC4)c(NS(C)(=O)=O)c3)cc21 [Example 256, N-(2-(2,2-Difluoro-3-(piperidin-1-yl)propoxy)-5-(3′-methyl-2′-oxo-2′,3′-dihydrospiro[cyclobutane-1,1′-pyrrolo[2,3-c]quinolin]-8′-yl)pyridin-3-yl)methanesulfonamide] |

same assay, conditions: pKAP1 in etoposide-treated MCF-7 cells

| IC50 [nM] | SMILES |
| --- | --- |
| > 100 | CC(C)NCCOc1ncc(-c2cc3c(cc2F)ncc2c3[C@]3(C[C@@H](OC(C)c4ccccc4)C3)C(=O)N2C)cc1NS(C)(=O)=O (stereo partly drawn) [Example 398, trans-N-(5-(7′-Fluoro-3′-methyl-2′-oxo-3-(1-phenylethoxy)-2′,3′-dihydrospiro[cyclobutane-1,1′-pyrrolo[2,3-c]quinolin]-8′-yl)-2-(2-(isopropylamino)ethoxy)pyridin-3-yl)methanesulfonamide] |
| > 100 | CC(C)NCCOc1ncc(-c2cc3c4c(cnc3cc2F)N(C)C(=O)C42CN(S(=O)(=O)c3ccccc3)C2)cc1NS(C)(=O)=O [Example 515] |
| 1 to 100 | CN(C)CCCOc1ncc(-c2ccc3ncc4c(c3c2)C2(CN(C(=O)OC(C)(C)C)C2)C(=O)N4C)cc1NS(C)(=O)=O [Example 479, tert-Butyl 8′-(6-(3-(dimethylamino)propoxy)-5-(methylsulfonamido)pyridin-3-yl)-3′-methyl-2′-oxo-2′,3′-dihydrospiro[azetidine-3,1′-pyrrolo[2,3-c]quinoline]-1-carboxylate] |
| > 100 | CC(C)NCCOc1ncc(-c2cc3c4c(cnc3cn2)N(C)C(=O)C42CCC2)cc1NS(C)(=O)=O [Example 562, N-(2-(2-(Isopropylamino)ethoxy)-5-(3′-methyl-2′-oxo-2′,3′-dihydrospiro [cyclobutane-1,1′-pyrrolo[2,3-c] [1,7]naphthyridin]-8′-yl)pyridin-3-yl)methanesulfonamide] |
| > 100 | CC(C)NCCOc1ncc(-c2cc3c4c(cnc3cc2F)N(C)C(=O)C42CC3(CCNCC3)C2)cc1NS(C)(=O)=O [Example 458, N-(5-(7′--Fluoro-3″-methyl-2″-oxo-2″,3″-dihydrodispiro [piperidine-4,1′-cyclobutane-31″-pyrrolo[2,3-c]quinolin]-8″-yl)-2-(2-(isopropylamino)ethoxy)pyridin-3-yl) methanesulfonamide] |
| 1 to 100 | CCN1C(=O)C2(CCC2)c2c1cnc1ccc(-c3cnc(N4CC(N(C)C)C4)c(NS(=O)(=O)c4ccccc4)c3)cc21 [Example 337, N-(2-(3-(Dimethylamino)azetidin-1-yl)-5-(3′-ethyl-2′-oxo-2′,3′-dihydrospiro[cyclobutane-1,1′-pyrrolo[2,3-c]quinolin]-8′-yl)pyridin-3-yl)benzenesulfonamide] |
| > 100 | CC(C)NCCOc1ncc(-c2cc3c4c(cnc3cc2F)N(C)C(=O)C42CN(C(=O)C(C)C)C2)cc1NS(C)(=O)=O [Example 512, N-(5-(7′-Fluoro-1-isobutyryl-3′-methyl-2′-oxo-2′,3′-dihydrospiro[azetidine-3,1′-pyrrolo[2,3-c]quinolin]-8′-yl)-2-(2-(isopropylamino)ethoxy)pyridin-3-yl)methanesulfonamide] |
| > 100 | CC(C)NCCOc1ncc(-c2cc3c4c(cnc3cc2F)N(C)C(=O)C42CN(C(=O)c3ccccc3)C2)cc1NS(C)(=O)=O [Example 516, N-(5-(1-Benzoyl-7′-fluoro-3′-methyl-2′-oxo-2′,3′-dihydrospiro[azetidine-3,1′-pyrrolo[2,3-c]quinolin]-8′-yl)-2-(2-(isopropylamino)ethoxy)pyridin-3-yl)methanesulfonamide] |
| 1 to 100 | COCCN[C@H]1C[C@@]2(C1)C(=O)N(C)c1cnc3cc(F)c(-c4cnc(OCCNC(C)C)c(NS(C)(=O)=O)c4)cc3c12 [Example 474, trans-N-{5-(7′-Fluoro-3-((2-methoxyethyl)amino)-3′-methyl-2′-oxo-2′,3′-dihydrospiro[cyclobutane-1,1′-pyrrolo[2,3-c]quinolin]-8′-yl)-2-(2-(isopropylamino)ethoxy)pyridin-3-yl)methanesulfonamide] |
| 1 to 100 | CC(C)NCCOc1ncc(-c2ccc3ncc4c(c3n2)C2(CCC2)C(=O)N4C)cc1NS(C)(=O)=O [Example 561, N-(5-[7-Methyl-8-oxo-7,8-dihydrospiro[cyclobutane-1,9-pyrrolo[2,3-c]1,5-naphthyridin]-2-yl]-2-[2-[(propan-2-yl)amino]ethoxy]pyridin-3-yl) methanesulfonamide] |
| 1 to 100 | CN(C)CCCOc1ncc(-c2cc(F)c3ncc4c(c3c2)C2(CCC2)C(=O)N4C)cc1NS(=O)(=O)N(C)C [Example 557, 8′-{6-[3-(Dimethylamino)propoxy]-5-[(dimethylsulfainoyl)amino]pyridin-3-yl}-6′-fluoro-3′-methyl-2′,3′-dihydrospiro [cyclobutane-1,1′-pyrrolo[2,3-c]quinoline]-2′-one] |
| > 100 | CC(C)NCCOc1ncc(-c2cc3c4c(cnc3cc2F)N(C)C(=O)C42CN(C3CCN(C)CC3)C2)cc1NS(C)(=O)=O [Example 502, N-(5-(7′-Fluoro-3′-methyl-1-(1-methylpiperidin-4-yl)-2′-oxo-2′,3′-dihydrospiro[azetidine-3,1′-pyrrolo[2,3-c]quinolin]-8′-yl)-2-(2-(isopropylamino)ethoxy)pyridin-3-yl)methanesulfonamide] |
